Experimental data as given in the NIST ThermoML archive (doi:10.1016/j.jct.2007.09.002).
Numbers after ± are expanded uncertainties.

Conditions: Liquid; Ebulliometric method (Recirculating still)

SMILES | Normal boiling temperature [°C]
FC(F)(F)c1ccccc1 [(trifluoromethyl)benzene] | 102.6 ± 0.2
c1ccccc1 [benzene] | 80 ± 0.2
ClC(Cl)Cl [trichloromethane] | 61.0 ± 0.2
CCO [ethanol] | 78.6 ± 0.2
